Among the test systems are TK-10 renal; LOX IMVI melanoma; COLO 205 colon; EKVX NSCLC; HOP-62 NSCLC; MOLT-4 leukemia; A549 NSCLC; M14 melanoma; NCI-H460 lung; SR leukemia.
Common to all, as to assay: DTP human tumour cell line panel, 48 h

The results in this text go back to PubChem BioAssay (NCI).

Each structure is given as a SMILES string.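 Test compounds were applied to cells in 96-well plates for 48 hours at 5 doses. GI50 = concentration required for 50% inhibition of growth. Definition used: TGI = concentration required for complete inhibition of growth.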

By TGI is commonly meant the concentration giving total growth inhibition. A high value points to lower sensitivity of the cells. On to `c1cnc2c(c1)-n1cccc1C1(CCSCC1)NN2`, for which the TGI in the assay with TK-10 renal, in the assay with LOX IMVI melanoma, in the assay with COLO 205 colon, with EKVX NSCLC, in the assay with HOP-62 NSCLC and in the assay with MOLT-4 leukemia was > 100 µM throughout. For the same molecule, the TGI in the assay with A549 NSCLC, in the assay on M14 melanoma, with NCI-H460 lung and in the assay on SR leukemia was > 100 µM in each case.

Consider `COc1cc(-c2cc(=O)c3cc4c(cc3[nH]2)OCO4)cc(OC)c1OC`, for which the TGI in the assay on TK-10 renal is > 100 µM; with LOX IMVI melanoma it was > 100 µM; in the assay on COLO 205 colon it was > 100 µM; in the assay with EKVX NSCLC, > 100 µM; with HOP-62 NSCLC it was 65.2 µM; with MOLT-4 leukemia it was > 100 µM. Besides, the TGI in the assay with A549 NSCLC, in the assay with M14 melanoma, in the assay on NCI-H460 lung and with SR leukemia was > 100 µM in each case.

What is called GI50 is the concentration at which growth is held to half of that of the control. In the case of `CCOc1ccc(/C=C/C(=O)c2ccccc2)cc1`, the GI50 in the assay on TK-10 renal was 17.9 µM; in the assay on LOX IMVI melanoma, 11.9 µM; in the assay on COLO 205 colon, 18 µM; in the assay with EKVX NSCLC, 16 µM; in the assay with HOP-62 NSCLC, 18.1 µM; in the assay on MOLT-4 leukemia it was 18.6 µM. The GI50 is 21.9 µM in the assay on A549 NSCLC, 18.8 µM in the assay with M14 melanoma, 19.5 µM in the assay with NCI-H460 lung and 8.5 µM with SR leukemia. Moreover, the TGI was 34.9 µM in the assay with TK-10 renal; 26.5 µM with LOX IMVI melanoma; 32.4 µM in the assay with COLO 205 colon; 30.6 µM in the assay on EKVX NSCLC; 35.4 µM with HOP-62 NSCLC; 94.9 µM with MOLT-4 leukemia. The TGI in the assay with A549 NSCLC was 53.9 µM; in the assay on M14 melanoma it was 38.9 µM; in the assay on NCI-H460 lung, 41.6 µM; in the assay with SR leukemia, 43.5 µM.

`O=C(Nc1ccccc1C(F)(F)F)c1cccc(NC2=C(Cl)C(=O)N(Cc3ccccc3)C2=O)c1`: the GI50 in the assay on TK-10 renal was 6.85 µM; with LOX IMVI melanoma, 5.87 µM; with COLO 205 colon it was 39.4 µM; with EKVX NSCLC, 13.2 µM; with HOP-62 NSCLC it was 19.1 µM; with MOLT-4 leukemia, 4.29 µM. For the same molecule, the GI50 with A549 NSCLC is 28.2 µM; with M14 melanoma it was 23 µM; with NCI-H460 lung, 3.52 µM; with SR leukemia, 0.447 µM. Moreover, the TGI with TK-10 renal is 37.2 µM; in the assay on LOX IMVI melanoma it was 36.9 µM; with COLO 205 colon, > 100 µM; in the assay on EKVX NSCLC it was 52.6 µM; with HOP-62 NSCLC it was > 52.2 µM; in the assay on MOLT-4 leukemia, 30.8 µM. In addition, the TGI in the assay on A549 NSCLC was > 77.8 µM; in the assay on M14 melanoma, > 76.8 µM; in the assay on NCI-H460 lung, 15.9 µM; in the assay on SR leukemia, 4.35 µM.

For `CCCC(=O)c1c(NOC2OC(COC(C)=O)C(OC(C)=O)C(OC(C)=O)C2OC(C)=O)nc(OC)n(C)c1=O` (stereo not given), the TGI in the assay with TK-10 renal, in the assay on LOX IMVI melanoma, in the assay with COLO 205 colon, in the assay on EKVX NSCLC, in the assay on HOP-62 NSCLC and in the assay with MOLT-4 leukemia was > 100 µM each time. Further, the TGI in the assay on A549 NSCLC, in the assay on M14 melanoma, in the assay with NCI-H460 lung and with SR leukemia was > 100 µM throughout.

On to `COc1ccc(-c2c(C3=NCCN3)nnn2-c2ccccc2)cc1`, for which the TGI with TK-10 renal, in the assay with LOX IMVI melanoma, in the assay on COLO 205 colon, with EKVX NSCLC, in the assay with HOP-62 NSCLC and in the assay with MOLT-4 leukemia was > 100 µM each time. For the same molecule, the TGI in the assay with A549 NSCLC, with M14 melanoma, in the assay on NCI-H460 lung and in the assay on SR leukemia was > 100 µM throughout.

For the molecule `Cc1nn(C(=O)c2ccccc2O)c2c1C(c1ccccc1)SC(N)=N2` (stereo not given), the TGI in the assay with TK-10 renal, in the assay on LOX IMVI melanoma, with COLO 205 colon, in the assay on EKVX NSCLC, in the assay with HOP-62 NSCLC and in the assay on MOLT-4 leukemia was > 10 µM in each case. The total growth inhibition concentration (TGI) was > 10 µM with A549 NSCLC, > 10 µM in the assay with M14 melanoma, > 10 µM with NCI-H460 lung and 6.49 µM in the assay on SR leukemia.

Turning to `Cc1c(CCCl)c(=O)n2c([nH]c3ccccc32)c1C#N`, the TGI came out at 5.62 µM with TK-10 renal; 2.02 µM in the assay on LOX IMVI melanoma; 0.28 µM in the assay with COLO 205 colon; 3.65 µM in the assay with EKVX NSCLC; 3.21 µM in the assay with HOP-62 NSCLC; 1.44 µM in the assay on MOLT-4 leukemia. Besides, the TGI in the assay on A549 NSCLC was 3.53 µM; in the assay on M14 melanoma, 2.99 µM; in the assay on NCI-H460 lung, 3.96 µM; in the assay on SR leukemia, > 10 µM.

Regarding `C=CC(=O)N1CCCC(n2nc(-c3ccc(Oc4ccccc4)cc3)c3c(N)ncnc32)C1` (stereo not given), the GI50 is 0.0615 µM in the assay with TK-10 renal; 4.26 µM with LOX IMVI melanoma; 14.1 µM in the assay on COLO 205 colon; 0.164 µM in the assay with EKVX NSCLC; 12.9 µM in the assay with HOP-62 NSCLC; 4.28 µM with MOLT-4 leukemia. Also, the GI50 is 11.9 µM with A549 NSCLC, 7.59 µM in the assay on M14 melanoma, 14.3 µM with NCI-H460 lung and 9.28 µM in the assay with SR leukemia. For the same molecule, the TGI in the assay with TK-10 renal was found to be 3.94 µM; with LOX IMVI melanoma, 19.1 µM; in the assay on COLO 205 colon it was 28.5 µM; in the assay on EKVX NSCLC it was 6.65 µM; in the assay with HOP-62 NSCLC, 26.1 µM; with MOLT-4 leukemia it was 25.8 µM. Moreover, the TGI in the assay on A549 NSCLC was found to be 26 µM; in the assay with M14 melanoma, 21.4 µM; in the assay with NCI-H460 lung, 31 µM; in the assay with SR leukemia, 34.1 µM.

In the case of `COc1cc([C@H](C)c2ccc3ccccc3c2)cc(OC)c1OC`, the GI50 in the assay on TK-10 renal is 12.2 µM; in the assay with LOX IMVI melanoma, 1.03 µM; with COLO 205 colon, 0.306 µM; in the assay with EKVX NSCLC, 0.941 µM; in the assay on HOP-62 NSCLC, 0.578 µM; in the assay with MOLT-4 leukemia, 0.504 µM. Moreover, the GI50 with A549 NSCLC is 0.595 µM; with M14 melanoma, 0.197 µM; in the assay with NCI-H460 lung, 0.332 µM; in the assay on SR leukemia it was 0.0528 µM. Moreover, the TGI in the assay on TK-10 renal was > 100 µM; with LOX IMVI melanoma it was > 100 µM; in the assay on COLO 205 colon, 0.865 µM; with EKVX NSCLC, > 100 µM; in the assay on HOP-62 NSCLC, > 100 µM; in the assay with MOLT-4 leukemia, > 100 µM. Moreover, the TGI is > 100 µM in the assay on A549 NSCLC, > 100 µM in the assay on M14 melanoma, 18 µM with NCI-H460 lung and > 100 µM in the assay on SR leukemia.
